{
  "source": "patent EP0062861A1",
  "about": "“Isophorone-free formulations of the herbicide propanyl” (Montedison S.p.A., priority 1981, dated 1982)",
  "origin": "cited, not measured here",
  "test_system": "mammalians",
  "conditions": "toxicity towards mammalians",
  "data": [
    {"smiles": "CCC(=O)Nc1ccc(Cl)c(Cl)c1", "note": "[Propanyl, N-(3,4-dichlorophenyl)-propionamide]", "values": [
      {"measurement": "LD 50", "result": 1384, "unit": "mg/kg"}
    ]}
  ]
}
